Measurements as given in publication PMC3397408, “Natural and synthetic cathelicidin peptides with anti-microbial and anti-biofilm activity against Staphylococcus aureus” (BMC Microbiology, 2011).
Where two headings read alike, the source gives them in different places. Where no end group is shown, it is not given here.

How the values were obtained:
[1] = tested on: S. aureus biofilm formation; conditions: peptide 10 μg/ml, TSB, 24 h, 37°C, polystyrene 96-well plate, crystal violet 570 nm, n = 6, relative to 0 peptide control
Description: (§1) C. […] Growth (absorbance at 600 nm) is indicated by gray bars with "0 peptide" control set to 100%. Biofilm detection on a polystyrene 96-well plate at 37°C after 24 h of growth in TSB was detected as the absorbance of crystal violet stain (570 nm). Percent biofilm production is indicated by black bars (n = 6), relative to "0 peptide" control. Each experiment is a representative of at least two independent trials. Error bars indicate the standard deviation from the mean. The asterisk (*) indicates statistically different than the positive control (p < 0.01).
(§2) Biofilm production was measured as previously described with the following modifications. […] The positive control is S. aureus in TSB with no peptide. Six wells were used for each peptide concentration (n = 6). After 24 h, the optical densities (OD) of the wells were taken at 600nm to quantify […]. The biofilm production was measured using the crystal violet stain technique.
All experiments were repeated at least twice, with a representative experiment shown.

[2] = tested on: erythrocytes; conditions: examined up to 200 μg/ml; cited from earlier work
Description: The hemolytic activity of each of the peptides was determined using 2% horse erythrocytes as previously described.

[3] = tested on: S. aureus; assay: Bacterial growth / MIC in TSB; assay type: cell-based, Staphylococcus aureus; conditions: TSB (relatively high salt), peptide concentrations up to the EC50 found in 10 mM sodium phosphate
Description: as §1, §2

[4] = tested on: S. aureus attachment to 96-well plate; assay: Biofilm attachment assay; assay type: cell-based, Staphylococcus aureus; conditions: peptide 1 μg/ml, 1 h, 37°C, TSB culture OD600 ~1.0, n = 16, Student's t test
Description: The attachment of Staphylococcus spp. to solid surfaces is largely seen as an essential step in the formation of biofilm. Since most of the peptides tested in our biofilm assays were capable of inhibiting biofilm formation (except for scrambled LL-37), we investigated a possible mechanism for this action. We incubated scrambled LL-37 (negative control), LL-37, D-LL-37, NA-CATH, and NA-CATH:ATRA1-ATRA1 peptides with S. aureus in a 1 hr attachment assay at peptide concentrations of 1 ug/ml, examining for the initial adherence to the wells of the 96 well tissue-culture treated plate.
Figure 3 Attachment assay of S. aureus in the presence of peptide. We tested scrambled LL-37 (negative control), LL-37, D-LL-37, NA-CATH, and NA-CATH:ATRA1-ATRA1 against S. aureus (1 h, 37°C) at 1 μg/ml, only allowing for the initial adherence to the wells.
Biofilm attachment assays were performed in a 96-well microtiter plate (BD Falcon 353072), as previously described. Overnight cultures of S. aureus were grown in TSB to an optical density (600nm) of ~1.0. 200 μl culture was added to the wells, followed by no peptide, scrambled LL-37 , LL-37, D-LL-37, NA-CATH, or NA-CATH:ATRA1-ATRA1 at 1 μg/ml. […] The wells were washed and OD600 measurements were taken, as in the biofilm production experiments, and the average absorbance for each treatment was determined (n = 16).

[5] = tested on: S. aureus (ATCC 25923)
Description: S. aureus (ATCC 25923, American Type Culture Collection, Manassas, VA) was grown in Nutrient Broth (Difco Laboratories, Detroit, Mich.) at pH 7, 37°C, 24 h with shaking at 200 rpm. The overnight culture was frozen with 20% glycerol and stored at -80°C. The frozen stock was enumerated (CFU/ml) by dilution plating and growth on Nutrient Agar plates.
For anti-microbial assays, frozen enumerated aliquots were thawed and gently mixed immediately before use. In a 96-well plate (BD Falcon 353072), 1 × 10^5 CFU per well bacteria were incubated with different peptide concentrations (in serial dilutions of 1:10 across the plate) in a solution of buffer containing sterile 10 mM sodium phosphate (pH 7.4) and incubated (3 h, 37°C). Negative control wells contained bacteria with no peptide. Serial dilutions were then carried out in sterile 1x PBS (Fisher Scientific) (pH 7) and plated in triplicate on Nutrient Agar plates, incubated (37°C, 24 h) and counted. […] The EC50 was calculated as previously described.
Each experiment was repeated at least twice, and a representative experiment is shown, for clarity. Errors were reported based on the standard deviation from the mean of the log10 EC50 values. 95% confidence intervals were used to determine whether points were statistically different at p = 0.05.

Compound	inhibition of biofilm formation [1]	hemolytic activity [2]	bacterial growth (OD600 at 24 hours) [3]	attachment of S. aureus to the wells [4]	EC50 ([5]; EC50 in μg/ml converted with the molecular weight of the TFA salt of the peptide) [nM]	EC50 ([5]; S. aureus ATCC 25923, 1 × 10^5 CFU per well, 3 h, 37°C, 10 mM sodium phosphate (pH 7.4), % survival by CFU counts, plated in triplicate, representative experiment) [µg/mL]	fold change of activity against S. aureus, ATRA-1A compared to ATRA-1 ([5]; p > 0.05) [fold]
CC[C@H](C)[C@H](NC(=O)[C@H](CCCCN)NC(=O)[C@H](CCC(=O)O)NC(=O)[C@H](CCCCN)NC(=O)[C@H](CO)NC(=O)[C@H](CCCCN)NC(=O)[C@H](CCCNC(=N)N)NC(=O)[C@H](Cc1ccccc1)NC(=O)[C@H](Cc1ccccc1)NC(=O)[C@H](CC(=O)O)NC(=O)CNC(=O)[C@H](CC(C)C)NC(=O)[C@@H](N)CC(C)C)C(=O)NCC(=O)N[C@@H](CCCCN)C(=O)N[C@@H](CCC(=O)O)C(=O)N[C@@H](Cc1ccccc1)C(=O)N[C@@H](CCCCN)C(=O)N[C@@H](CCCNC(=N)N)C(=O)N[C@H](C(=O)N[C@H](C(=O)N[C@@H](CCC(N)=O)C(=O)N[C@@H](CCCNC(=N)N)C(=O)N[C@H](C(=O)N[C@@H](CCCCN)C(=O)N[C@@H](CC(=O)O)C(=O)N[C@@H](Cc1ccccc1)C(=O)N[C@@H](CC(C)C)C(=O)N[C@@H](CCCNC(=N)N)C(=O)N[C@@H](CC(N)=O)C(=O)N[C@@H](CC(C)C)C(=O)N[C@H](C(=O)N1CCC[C@H]1C(=O)N[C@@H](CCCNC(=N)N)C(=O)N[C@H](C(=O)N[C@@H](CCC(=O)O)C(=O)N[C@@H](CO)C(=O)O)[C@@H](C)O)C(C)C)[C@@H](C)CC)C(C)C)[C@@H](C)CC [LL-37]	~ 40%	similarly low levels	not decreased	significantly decreased			
KRAKKFFKKLK-NH2 [ATRA-1A]					310	0.73	1.4
